Test results taken from patent US20060110468A1, “Herbal formulations for arthritis” (priority 2004, published 2006).

Key:
[1] = tested on: rat paw edema evoked by egg white; assay: Egg white induced paw edema test in rats; type: in vivo; settings: 8 mg/kg
Protocol: (§1) The anti-inflammatory effects of above extracts of the present invention were investigated in acute inflammatory models induced by either carrageenan or egg white.
(§2) Rats received a subplantar injection of carrageenan (0.1 ml of a 1% suspension in 0.85% saline; Sigma Chemical Co., St Louis, Mo., USA) or egg white (0.1 ml of a 10% solution in 0.85% saline) in the left hind paw. The total volume injected was 0.1 ml.
(§3) Indomethacin was administered to animals in the positive control group.
(§4) The volume of paw edema (in ml) was measured in each animal using a plethysmometer (Plethysmometer 7150, Ugo Basile, Italy) to a precision of two decimal places. The measurements were made immediately before and 2, 4, 6, 24 h after the carrageenan injection or 1, 2, 3, and 4 h after the injection of egg white. The swelling rate of paw was the percentage difference in paw volume and calculated by the following equation: Swelling rate (%)=(A−B)×100/B, where A represents the paw volume at different time points after injection, and B represents the paw volume before injection.
(§5) Values are presented as mean±SD.

[2] = tested on: rat paw edema evoked by carrageenan; assay: Carrageenan induced paw edema test in rats; type: in vivo; settings: 10 mg/kg
Protocol: as §1, §2, §3, §4, §5

[3] = tested on: writhing activity of mice induced by acetic acid; assay: Acetic acid writhing test in mice; type: in vivo, ICR mice; settings: one hour after administration; for The number of writhing episodes: mice
Protocol: In the writhing test, acetic acid is injected into the intraperitoneal cavity of mice. This induces acute inflammatory pain characterized by a contraction wave of abdominal musculature through stretching of the hind limbs that is called writhing, and the number of writhing episodes is evaluated.
Male and female ICR mice weighing 18 g to 25 g were fasted for one day before the test. […] The animals were then placed in individual 101×15 cm Plexiglas observation chambers for a 10-min acclimatization period. Acetic acid, 0.8% in 0.85% saline was injected i.p. into each mouse the animals were then returned into their respective transparent chambers.
The animals were then observed for a specific period (15 or 20 mins) and the number of writhing episodes was counted. For scoring purpose, a writhe was indicated by a contraction wave of abdominal musculature with simultaneous stretching of at least one hind limb.
as §5

C[C@@H]1C[C@H]2[C@@H]3CCC4=CC(=O)C=C[C@]4(C)[C@@]3(F)[C@@H](O)C[C@]2(C)[C@@]1(O)C(=O)CO [Dexamethasone]
Swelling percentage of paw volume after stimulation (%) 1 hr ([1]; 1 hr): 26.66 ± 3.34 %
Swelling percentage of paw volume after stimulation (%) 2 hr ([1]; 2 hr): 19.31 ± 5.83 %
Swelling percentage of paw volume after stimulation (%) 3 hr ([1]; 3 hr): 9.12 ± 4.42 %
Swelling percentage of paw volume after stimulation (%) 4 hr ([1]; 4 hr): 7.49 ± 4.08%

COc1ccc2c(c1)c(CC(=O)O)c(C)n2C(=O)c1ccc(Cl)cc1 [Indomethacin]
inhibition of swelling evoked by carrageenan (in words) ([2]; positive control, not observed at 24 hrs after stimulation): inhibited the swelling within 7 hrs after drug administration
Percentage change in swelling after injecting carrageenan (%) 2 hour ([2]; rat, 2 hour): 12.27 ± 4.61 %
Percentage change in swelling after injection of carrageenan (%) 2 hour ([2]; rat, 2 hour (Table 13)): 12.27 ± 4.61 %
Percentage change in swelling after injecting carrageenan (%) 4 hour ([2]; rat, 4 hour): 15.12 ± 7.85 %
Percentage change in swelling after injection of carrageenan (%) 4 hour ([2]; rat, 4 hour (Table 13)): 15.12 ± 7.85 %
Percentage change in swelling after injecting carrageenan (%) 6 hour ([2]; rat, 6 hour): 15.32 ± 7.84 %
Percentage change in swelling after injection of carrageenan (%) 6 hour ([2]; rat, 6 hour (Table 13)): 15.32 ± 7.84 %
Percentage change in swelling after injecting carrageenan (%) 24 hour ([2]; rat, 24 hour): 35.36 ± 14.65%
Percentage change in swelling after injection of carrageenan (%) 24 hour ([2]; rat, 24 hour (Table 13)): 35.36 ± 14.65%

COC1=C[C@@H]2[C@@H]3Cc4ccc(OC)c(O)c4[C@]2(CCN3C)CC1=O [Sinomenine]
The number of writhing episodes ([3]; 0.0375 g/kg): 25 ± 9
inhibition to the writhing activity of mice induced by acetic acid (in words) ([3]; tetrahydropalmatine 0.09 g/kg, sinomenine 0.0375 g/kg, capsule 12.7 g/kg and 25.50 g/kg): significant compared to control group

COc1cc2c(cc1OC)[C@@H]1Cc3ccc(OC)c(OC)c3CN1CC2 [Tetrahydropalmatine]
The number of writhing episodes ([3]; 0.090 g/kg): 11 ± 6
